“Also recorded” adds a separate entry of the source.
Experiments:
[1] = tested on: human ARNT; assay: DRE-luciferase in ARNT-deficient C4 cells transfected with ARNT; assay type: cell-based; conditions: ARNT or empty vector, 3 µM, 18 h
[2] = tested on: human 101L-hepatoma cells; assay: Duration of DRE-luciferase activation; assay type: cell-based; conditions: for luciferase activity: 100 nM
[3] = tested on: C57BL/6J splenocytes; assay: CYP1A1, CYP1B1 and IDO mRNA in C57BL/6J splenocytes; assay type: cell-based, mouse; conditions: 4 hours
From the text: (§1) An important role for the AHR in the immune system, and specifically T-cell differentiation, has been recognized and continues to be characterized in the literature, [7]. Some ligands of the AHR have the ability to enhance Treg differentiation from naïve T-cells (TCDD, kynurenine), while others direct differentiation towards Th17 effector cells (FICZ). […] IDO has long been known to play a role in Treg generation, and may be central to the mechanism of Dendritic Cell (DC)-directed Treg generation. […] As described in the Methods, naïve T-cells were sorted using magnetic bead separation, and placed in culture for 5 days with allogeneic pDCs separated from BALB/C mice. […] After 5 days, cells were collected and mRNA harvested for qPCR analysis of IDO and FoxP3. […] Naïve T cells were placed in culture with IL-6 and TGF-β, and harvested after 3 days of culture.
(§2) A. Spleens were harvested from mice and processed in the standard fashion. […] Same assay as A, but mRNA for CYP1B1 and IDO were measured. C.

[4] = tested on: naïve T-cells with allogeneic BALB/C pDCs; assay: pDC/T cell coculture, qPCR of IDO and FoxP3; assay type: cell-based, mouse; conditions: 5 days, SU5416 500 nM, TCDD 10 nM
From the text: as §1, §2
Naive CD4^+CD25^− T cells were isolated from WT and AHR-null mice and cocultured with BALB/cJ pDCs isolated using the Miltenyi Mouse pDC Isolation Kit (Miltenyi Biotec) at a ratio of 20∶1 or 10∶1 as previously described (13). […] On day 5, cells were harvested and subjected to qPCR analysis.

[5] = tested on: naïve T cells; assay: Naïve T cells in Th17 conditions, IL-17 ELISA of supernatant; assay type: cell-based, mouse; conditions: TGF-β 4 ng/ml, IL-6 20 ng/ml, 3 days
[6] = target: T1, rat AHR^b (5L) (Rattus norvegicus, UniProt P41738); assay: EROD activity in rat hepatoma 5L cells; assay type: cell-based; conditions: 5L versus AHR^d-15 cells, 40 hours
T1 construct: endogenous in cells; host or cells: rat hepatoma 5L cells
Description: We utilized the wild type rat hepatoma cell line, 5L, which harbors the high affinity AHR isoform, and our newly created AHR^d-15 cell line. […] Groups of control mice were given corn oil alone or BNF at the concentration of 120 mg/kg.
Figure 3 In Vitro dose response curves. A. Rat hepatoma cell lines bearing the murine AHR^d (AHR^d-15) or the rat AHR^b (5L) were incubated with increasing doses of TCDD in 96-well plates. After 40 hours, EROD activity was performed from whole cell lysate. (n = 3). […] (n = 3). C. Same assay as in A, with increasing doses of BNF. (n = 2). […] Following 48 hours, hepatic microsomal proteins were isolated and used for the assessment of EROD activity. Animals were treated in groups of 4. Error bars: S.D.
High-throughput analysis of EROD activity was assayed by adapting a protocol that was described elsewhere, [63]. Briefly, cells were seeded into 96-well plates at ∼ 60% density and treated with the test compounds for 36 hours. The cells were washed with PBS and lysed with 30 µL water and a cycle of freeze-thaw. To each well, 150 µL of 50 mM Hepes buffer containing 26.7 µM dicumarol and 13.3 µM ethoxyresorufin were added. The samples were incubated at 30°C for 20 minutes, and 50 µL of 0.5 mM β-NADPH were added to initiate the reaction. Fluorescence of the resorufin product was detected using the 544 nm excitation and 590 nm emission wavelength filter set.

[7] = tested on: CYP1A1 (induction through AHR^b); assay: CYP1A1 qPCR in wild-type splenocytes; conditions: C57BL/6J, mouse
Description: (§3) As the above in vitro experiments were performed in cell lines, we next utilized AHR^b (C57BL/6J) and AHR^d congenic mice (on a C57BL/6J background). […] Normalized data was chosen to allow comparison of CYP1A1 upregulation to its maximum in AHR^b versus AHR^d mice.
(§4) Figure 4 Splenocytes from wild-type and AHR^d mice analyzed by qPCR for CYP1A1. […] After 4 hours they were analyzed by qPCR for CYP1A1 analysis. The curves are normalized from 0 to 100% response. […] Cos-1 cells were transfected with an AHR containing the same point mutation (valine for alanine) thought to be responsible for the low affinity of the AHR^d isoform compared to AHR^b, and compared to the wild-type AHR response. These cells also harbor a luciferase gene next to the DRE. C. Cos-1 cells were exposed to TCDD. […]
(§5) Spleen was harvested from mice at the time of euthanasia and single cell suspensions were made. […] The relative quantitation PCR for IDO1 (Mm00492586-m1) and GAPDH (4352339-E0806018) were performed in the Applied Biosystems 7900HT Fast Real-Time PCR System (Applied Biosystems), and TaqMan Universal PCR Master Mix (Applied Biosystems) was used as a reaction reagent. The relative quantitation PCR for Foxp3, CYP1A1, CYP1B1, and GAPDH were processed by the Bio-Rad iCycler (Bio-Rad) and iQ SYBR Green Supermix ([…]) was used as the reaction reagent.

[8] = tested on: CYP1A1 (induction through AHR^d); assay: CYP1A1 qPCR in AHR^d splenocytes; conditions: AHR^d congenic on a C57BL/6J background, mouse
Description: as §3, §4, §5

[9] = target: AHR A375V (AHR^d type) (Mus musculus, UniProt P30561, A375V); assay: DRE-luciferase in COS-1 cells transfected with mAHR-A375V
Description: Figure 4 Splenocytes from wild-type and AHR^d mice analyzed by qPCR for CYP1A1. […] After 4 hours they were analyzed by qPCR for CYP1A1 analysis. The curves are normalized from 0 to 100% response. […] Cos-1 cells were transfected with an AHR containing the same point mutation (valine for alanine) thought to be responsible for the low affinity of the AHR^d isoform compared to AHR^b, and compared to the wild-type AHR response. These cells also harbor a luciferase gene next to the DRE. C. Cos-1 cells were exposed to TCDD. […] The graphs represent normalized data from 0 response to 100% response. They are representative of 2 independent experiments.
These cells also harbor a luciferase gene next to the DRE. […] The data in this figure is normalized from 0 to 100% response.
After 4 hours of treatment, cells were assayed with dual luciferase® reporter assay system (Promega, Madison, WI). The expressed luciferase activity was measured by MicroLumat Plus luminometer (Berthold Technologies, Hartfordshire, UK).

Row | Structure (SMILES) | DRE-luciferase activity [1] | luciferase activity as percent of TCDD response (1 nM) [2] [%] | luciferase activity ([2]; 4 hours) | luciferase activity ([2]; 24 hours) | induction of CYP1A1 and CYP1B1 mRNA ([3]; titrating doses) | induction of IDO mRNA ([3]; titrating doses) | CYP1A1 mRNA induction ([3]; wild-type cells, SU5416 500 nM) | FoxP3 mRNA [4] | IDO mRNA [4] | IL-17 protein by ELISA in the supernatant ([5]; higher doses) | IL-17 protein by ELISA in the supernatant ([5]; low doses) | shift of EROD dose-response to the left for the AHR^b isoform [6] | duration of DRE-binding ([2]; 1 nM, 4 to 96 hours) | EC50 at 4 h [7] [nM] | EC50 at 4 h [8] [nM] | EC50 [9] [nM]
1 | Cc1cc(C)c(C=C2C(=O)Nc3ccccc32)[nH]1 [SU5416, 3-(3,5-dimethyl-1H-pyrrol-2-ylmethylene)-1,3-dihydro-indole-2-one] | activity was only seen when ARNT was transfected | ≤ 20 | has activity | no longer causes luciferase activity | dramatically induced | induced significant amounts of IDO mRNA | induced CYP1A1 in wild-type | generated; also recorded: to a greater extent than TCDD | generated; also recorded: to a greater extent than TCDD | did not see this effect | small increase |  |  |  |  | 
2 | Clc1cc2c(cc1Cl)Oc1cc(Cl)c(Cl)cc1O2 [TCDD, 2,3,7,8-tetrachlorodibenzo-p-dioxin] |  |  |  |  |  |  |  | upregulation was also seen | upregulation was also seen |  |  | 1.5 orders of magnitude | long duration DRE-binding | 0.461 | 1.89 | 2.47
